Measurements: patent US8163793B2, “Proline derivatives” (Hoffman-La Roche Inc., priority 2009, dated 2012)
Where a name gives a salt, the structure may show the parent alone.

Key:
Cathepsin S = Cathepsin S (UniProt P25774); assay: Cathepsin enzyme inhibition assay (fluorogenic peptide substrate Z-Val-Val-Arg-AMC), Cathepsin S; type: biochemical, human and mouse; conditions: enzyme 1 nM, substrate 20 μM, pH 6.5; read-out: CatS IC50
Procedure, shortened: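 Compounds were combined with 1 nM human or mouse enzyme, and substrate then started the reaction. The buffer was potassium phosphate (100 mM, pH 6.5) containing EDTA-Na 5 mM, Triton X-100 0.001% and […] 5 mM.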

Cat L = Cat L (UniProt P07711); assay: Cathepsin enzyme inhibition assay (fluorogenic peptide substrate Z-Val-Val-Arg-AMC), Cathepsin L; type: biochemical, human and mouse; conditions: enzyme 1 nM, substrate 20 μM, pH 6.5; read-out: CatL IC50
Procedure, shortened: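 Fluorogenic cleavage of Z-Val-Val-Arg-AMC (20 μM) by 1 nM Cat L was monitored at ex 360/em 465 nm for 20 min, the linear phase. The buffer was 100 mM potassium phosphate pH 6.5 with 5 mM EDTA and DTT. IC50 values were derived by standard methods, in μM.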

IC50 (Cathepsin S)	IC50 (Cat L)	Compound
2.8 nM	≥ 25 µM	CC(C)(C)OC(=O)N1C[C@H](S(=O)(=O)c2ccc(-n3cccn3)cc2Cl)C[C@H]1C(=O)NC1(C#N)CC1 [Example 120, (2S,4R)-4-(2-Chloro-4-pyrazol-1-yl-benzenesulfonyl)-2-(1-cyano-cyclopropylcarbamoyl)-pyrrolidine-1-carboxylic acid tert-butyl ester]
4.1 nM	23.7 µM	CC(C)(C)OC(=O)N1C[C@H](S(=O)(=O)c2ccc(N3CCCCC3)cc2Cl)C[C@H]1C(=O)NC1(C#N)CC1 [Example 121, (2S,4R)-4-(2-Chloro-4-piperidin-1-yl-benzenesulfonyl)-2-(1-cyano-cyclopropylcarbamoyl)-pyrrolidine-1-carboxylic acid tert.-butyl ester]
9.4 nM	23.8 µM	CC(Oc1ccc(S(=O)(=O)[C@@H]2C[C@@H](C(=O)NC3(C#N)CC3)N(C(=O)OC(C)(C)C)C2)c(Cl)c1)C(F)(F)F (stereo partly drawn) [Example 122, (2S,4R)-4-[2-Chloro-4-(2,2,2-trifluoro-1-methyl-ethoxy)-benzenesulfonyl]-2-(1-cyano-cyclopropylcarbamoyl)-pyrrolidine-1-carboxylic acid tert.-butyl ester]
2610 nM	≥ 25 µM	CC(C)C[C@]1(C(=O)NC2(C#N)CC2)C[C@H](S(C)(=O)=O)[C@@H](c2ccc(F)cc2)N1 [Example 123, (2R,4S,5R)-5-(4-Fluoro-phenyl)-2-isobutyl-4-methanesulfonyl-pyrrolidine-2-carboxylic acid (1-cyano-cyclopropyl)-amide]
12.5 nM	≥ 25 µM	CC(C)(C)OC(=O)N1C[C@H](S(=O)(=O)c2ccc(F)cc2Cl)C[C@H]1C(=O)NC1(C#N)CC1 [Example 124, (2S,4R)-4-(2-Chloro-4-fluoro-benzenesulfonyl)-2-(1-cyano-cyclopropylcarbamoyl)-pyrrolidine-1-carboxylic acid tert.-butyl ester]
195 nM	≥ 25 µM	CC(C)C[C@]1(C(=O)NC2(C#N)CC2)C[C@H](S(C)(=O)=O)[C@@H](c2ccc(F)cc2)N1C(=O)OC(C)(C)C [Example 125, (2R,4S,5R)-2-(1-Cyano-cyclopropylcarbamoyl)-5-(4-fluoro-phenyl)-2-isobutyl-4-methanesulfonyl-pyrrolidine-1-carboxylic acid tert.-butyl ester]
1250 nM	≥ 25 µM	CC(C)C[C@]1(C(=O)NC2(C#N)CC2)C[C@H](S(=O)(=O)c2ccccc2)[C@@H](c2ccc(F)cc2)N1 [Example 126, (2R,4S,5R)-4-Benzenesulfonyl-5-(4-fluoro-phenyl)-2-isobutyl-pyrrolidine-2-carboxylic acid (1-cyano-cyclopropyl)-amide]
2 nM	6 µM	N#CC1(NC(=O)[C@@H]2C[C@@H](S(=O)(=O)c3ccc(N4CCCCC4)cc3Cl)CN2)CC1 [Example 127, (2S,4R)-4-(2-Chloro-4-piperidin-1-yl-benzenesulfonyl)-pyrrolidine-2-carboxylic acid (1-cyano-cyclopropyl)-amide]
1.4 nM	17.3 µM	N#CC1(NC(=O)[C@@H]2C[C@@H](S(=O)(=O)c3ccc(-n4cccn4)cc3Cl)CN2)CC1 [Example 128, (2S,4R)-4-(2-Chloro-4-pyrazol-1-yl-benzenesulfonyl)-pyrrolidine-2-carboxylic acid (1-cyano-cyclopropyl)-amide]
8 nM	20.4 µM	CC(Oc1ccc(S(=O)(=O)[C@H]2CN[C@H](C(=O)NC3(C#N)CC3)C2)c(Cl)c1)C(F)(F)F (stereo partly drawn) [Example 129, (2S,4R)-4-[2-Chloro-4-(2,2,2-trifluoro-1-methyl-ethoxy)-benzenesulfonyl]-pyrrolidine-2-carboxylic acid (1-cyano-cyclopropyl)-amide]
2.4 nM	≥ 25 µM	CC(C)(C)OC(=O)N1C[C@H](S(=O)(=O)c2ccc(N3CCC(F)(F)C3)cc2Cl)C[C@H]1C(=O)NC1(C#N)CC1 [Example 130, (2S,4R)-4-[2-Chloro-4-(3,3-difluoro-pyrrolidin-1-yl)-benzenesulfonyl]-2-(1-cyano-cyclopropylcarbamoyl)-pyrrolidine-1-carboxylic acid tert.-butyl ester]
0.9 nM	33.9 µM	CC(=O)N1C[C@H](S(=O)(=O)c2ccc(-n3cccn3)cc2Cl)C[C@H]1C(=O)NC1(C#N)CC1 [Example 131, (2S,4R)-1-Acetyl-4-(2-chloro-4-pyrazol-1-yl-benzenesulfonyl)-pyrrolidine-2-carboxylic acid (1-cyano-cyclopropyl)-amide formiate]
3.8 nM	35 µM	CC(=O)N1C[C@H](S(=O)(=O)c2ccc(OC(C)C(F)(F)F)cc2Cl)C[C@H]1C(=O)NC1(C#N)CC1 (stereo partly drawn) [Example 132, (2S,4R)-1-Acetyl-4-[2-chloro-4-(2,2,2-trifluoro-1-methyl-ethoxy)-benzenesulfonyl]-pyrrolidine-2-carboxylic acid (1-cyano-cyclopropyl)-amide]

The next lines start with the compound.

Compound	IC50 (Cathepsin S)	IC50 (Cat L)
N#CC1(NC(=O)[C@@H]2C[C@@H](S(=O)(=O)c3ccccc3C(F)(F)F)CN2C(=O)c2ccc(F)cc2)CC1 [Example 106, (2S,4R)-1-(4-Fluoro-benzoyl)-4-(2-trifluoromethyl-benzenesulfonyl)-pyrrolidine-2-carboxylic Acid (1-cyano-cyclopropyl)-amide]	0.4 nM	≥ 25 µM
N#CC1(NC(=O)[C@@H]2C[C@@H](S(=O)(=O)c3ccccc3C(F)(F)F)CN2Cc2ccccc2)CC1 [Example 107, (2S,4R)-1-Benzyl-4-(2-trifluoromethyl-benzenesulfonyl)-pyrrolidine-2-carboxylic acid (1-cyano-cyclopropyl)-amide]	25 nM	16.6 µM
N#CC1(NC(=O)[C@@H]2C[C@@H](S(=O)(=O)c3ccccc3C(F)(F)F)CN2Cc2ccncc2)CC1 [Example 108, (2S,4R)-1-Pyridin-4-ylmethyl-4-(2-trifluoromethyl-benzenesulfonyl)-pyrrolidine-2-carboxylic Acid (1-cyano-cyclopropyl)-amide]	5.8 nM	47.7 µM
N#CC1(NC(=O)[C@@H]2C[C@@H](S(=O)(=O)c3ccccc3C(F)(F)F)CN2CC(F)(F)C(F)(F)F)CC1 [Example 109, (2S,4R)-1-(2,2,3,3,3-Pentafluoro-propyl)-4-(2-trifluoromethyl-benzenesulfonyl)-pyrrolidine-2-carboxylic acid (1-cyano-cyclopropyl)-amide]	12.7 nM	≥ 25 µM
COCCN1C[C@H](S(=O)(=O)c2ccccc2C(F)(F)F)C[C@H]1C(=O)NC1(C#N)CC1 [Example 110, (2S,4R)-1-(2-Methoxy-ethyl)-4-(2-trifluoromethyl-benzenesulfonyl)-pyrrolidine-2-carboxylic Acid (1-cyano-cyclopropyl)-amide]	60.5 nM	≥ 25 µM
CC(=O)N1C[C@H](S(=O)(=O)c2ccc(-n3cccn3)cc2C(F)(F)F)C[C@H]1C(=O)NC1(C#N)CC1 [Example 111, (2S,4R)-1-Acetyl-4-(4-pyrazol-1-yl-2-trifluoromethyl-benzenesulfonyl)-pyrrolidine-2-carboxylic acid (1-cyano-cyclopropyl)-amide]	0.7 nM	≥ 25 µM
CC(=O)N1C[C@H](S(=O)(=O)c2ccc(-n3ccnc3)cc2C(F)(F)F)C[C@H]1C(=O)NC1(C#N)CC1 [Example 112, (2S,4R)-1-Acetyl-4-(4-imidazol-1-yl-2-trifluoromethyl-benzenesulfonyl)-pyrrolidine-2-carboxylic acid (1-cyano-cyclopropyl)-amide]	0.8 nM	≥ 25 µM
CC(C)CS(=O)(=O)[C@@H]1C[C@@H](C(=O)NC2(C#N)CC2)N(C(=O)OC(C)(C)C)C1 [Example 113, (2S,4R)-2-(1-Cyano-cyclopropylcarbamoyl)-4-(2-methyl-propane-1-sulfonyl)-pyrrolidine-1-carboxylic acid tert-butyl ester]	3130 nM	≥ 25 µM
CC(C)CS(=O)(=O)[C@H]1CN[C@H](C(=O)NC2(C#N)CC2)C1 [Example 114, (2S,4R)-4-(2-Methyl-propane-1-sulfonyl)-pyrrolidine-2-carboxylic acid (1-cyano-cyclopropyl)-amide Hydrochloride]	3500 nM	≥ 25 µM
N#CCNC(=O)C12CC(S(=O)(=O)c3ccccc3)CN1CC(F)(F)C2 (stereo not shown) [Example 115, 6-Benzenesulfonyl-2,2-difluoro-tetrahydro-pyrrolizine-7a-carboxylic acid cyanomethyl-amide]	48 nM	3.47 µM
N#CCNC(=O)C12CC(F)(F)CN1CCC2S(=O)(=O)c1ccccc1 (stereo not shown) [Example 116, 1-Benzenesulfonyl-6,6-difluoro-tetrahydro-pyrrolizine-7a-carboxylic acid cyanomethyl-amide, diasteromer Δ1]	35.5 nM	≥ 25 µM
N#CCNC(=O)C12CC(F)(F)CN1CCC2S(=O)(=O)c1ccccc1 (stereo not shown) [Example 117, 1-Benzenesulfonyl-6,6-difluoro-tetrahydro-pyrrolizine-7a-carboxylic acid cyanomethyl-amide, diasteromer Δ2]	86.5 nM	≥ 25 µM
COC(=O)c1ccc(C(=O)N2C[C@H](S(=O)(=O)c3ccccc3C(F)(F)F)C[C@H]2C(=O)NC2(C#N)CC2)cc1 [Example 118, 4-[(2S,4R)-2-(1-Cyano-cyclopropylcarbamoyl)-4-(2-trifluoromethyl-benzenesulfonyl)-pyrrolidine-1-carbonyl]-benzoic acid methyl ester]	0.9 nM	≥ 25 µM
